Source: patent US20250137054A1, “COMPOSITION AND METHOD FOR EVALUATING RESPONSIVENESS OF EDARAVONE” (MITSUBISHI TANABE PHARMA CORPORATION, priority 2022, published 2025)

Key:
Assay type in all cases: cell-based, rat
[1] = test system: disease model cells (neurons derived from the 1464R cell line forcibly expressing wild-type and mutant TDP-43); assay: RNA-seq gene expression analysis in disease model cells
Description: Using both vectors (a) and (b), the differentiated cell line in the infection medium was infected with adenovirus at a multiplicity of infection of 50, and cultured for 24 hours. As a result, neurons derived from the 1464R cell line, in which both wild-type and mutant TDP-43 were forcibly expressed intracellularly (hereinafter, also referred to as disease model cells), were obtained.
In the present evaluation, a 6-well plate treated with poly-L-lysine was used, cells were seeded at a density of 1×10^6 cells per well, cultured under the conditions of (1) of Example 1, and differentiated cells were used.
(3) Group 3 (TDP-43+EA exposed group; represented as ‘Group 3’ in FIG. 4 and FIGS. 7-11): After preparing the disease model cells expressing TDP-43, the cells were cultured in differentiation medium free of Eda but containing EA (final concentration 20 μmol/L) for 24 hours. This experimental group forcibly expresses TDP-43 and simulates conditions where the target has a neurodegenerative disease and remains untreated.
(4) Group 4 (TDP-43+EA+Eda exposed group; represented as ‘Group 4’ in FIG. 4 and FIGS. 7-11): After preparing the disease model cells expressing TDP-43, the cells were cultured in differentiation medium containing Eda (final concentration 50 μmol/L) but free of EA for 24 hours. After that, EA (final concentration 20 μmol/L) was further added, and the cells were further cultured for an additional 24 hours. This experimental group simulates conditions where the target with a neurodegenerative disease is administered or exposed to Eda.
After the culture was completed, cell pellets containing 1×10^6 or more cells were obtained from the experimental groups (1)-(4). Total RNA was extracted from these cell pellets using NucleoSpin RNA (manufactured by Macherey-Nagel) according to a product protocol.
Using the extracted total RNA (1.0 ng) as a template, double-stranded cDNA was synthesized using the SMART method using the SMART-Seq v4 Ultra (registered trademark) Low Input RNA Kit for Sequencing (manufactured by Clontech) according to a product protocol.
Next, using the NovaSeq6000 system (NovaSeq6000 S4 reagent kit, NovaSeq Xp4 lane kit, and NovaSeq control software (version 1.6.0); all manufactured by Illumina), sequences of the cDNA library were determined according to a product protocol.
Next, using the DRAGEN Bio-IT platform software (version 3.6.3, manufactured by Illumina) and referring to the rat genome assembly (version 6.0, top-level) and transcript annotation (release 101) obtained from the Ensembl database, types and abundance of genes were identified from the 150-base sequence information contained in the FASTQ files mentioned above.
An RNA expression level (TPM) of a transcription product i measured from the cDNA library of the experimental groups was calculated based on alignment to the rat genome and transcription product annotation from the Ensembl database, according to the following equation (A).
Differential expression analysis was performed using DESeq2 (a package for two-group comparison) in the statistical analysis software R (version 3.6.0) to calculate a log 2 ratio of RNA expression levels and a significance test. The log 2 ratio is a value expressed as “log 2 ([expression level of a first measurement target]/[expression level of a second measurement target]).”
The significance test was performed based on a p-value calculated by Wald test with multiple testing correction based on the Benjamini-Hochberg method (BH method).
In the present analysis, a gene with an absolute log 2 ratio of 1 or more (expression change ratio of 2.0 times or more or 0.50 times or less) and a p-value of 0.01 or less from the Wald test between any two groups was identified as a “gene with a change in expression level” (differentially expressed gene; DEG).
The X-axis represents a first principal component, and the Y-axis represents a second principal component, with their respective contribution rates expressed as percentages. […]

[2] = test system: disease model cells, TDP-43 (+); assay: Evaluation of cell protection using chromogenic substrate (2), without EA; conditions: Eda 50 or 100 μmol/L 96 h, no EA; vs Comparative Example 2 (FIG. 12)
Description: Using the differentiated cell line prepared using the method of Example 1 (indicated as “TDP-43 (−)” in FIG. 12), an Eda-unexposed group (Reference Example 2) and a 96-hour Eda-exposed group (final concentration 100 μmol/L) (Reference Example 3) were each prepared.
Further, using the disease model cells prepared using the method of Example 1 (indicated as “TDP-43 (+)” in FIG. 12), an Eda-unexposed group (Comparative Example 2) and 96-hour Eda-exposed groups (final concentration 50 or 100 μmol/L) (Examples 5-1 and 5-2) were each prepared.
All of these were performed without containing EA.
After that, similar to Example 3-1 and the like, a cell toxicity measurement kit was used to expose the cells in each group according to a product protocol, and an amount of chromogenic substrate produced was measured by absorbance at 450 nm.
The data shown in FIG. 12 are all expressed as mean±standard error of the mean (SEM, n=4 for each). In FIG. 12, the symbol “##” indicates a statistically significant difference of p<0.01 compared to Comparative Example 2. In FIG. 12, the symbol “**” indicates a statistically significant difference of p<0.05 compared to Comparative Example 2. In FIG. 12, the symbol “$” indicates a statistically significant difference of p<0.05 compared to Reference Example 2 (all determined by Student t-test).

[3] = test system: disease model cells (neurons derived from the 1464R cell line forcibly expressing wild-type and mutant TDP-43); assay: Evaluation of cell protection by microscopic observation; conditions: Eda 200 μmol/L 24 h, then EA 20 μmol/L 24 h; fluorescence microscope (FIG. 2)
Description: As a target, a 1464R adult rat neural stem cell line (hereinafter also referred to as the “1464R cell line” or “undifferentiated cell line”) was used.
Next, using a differentiation medium shown below, the 1464R cell line was cultured in an adherent state on a poly-L-lysine treated dish. Culture conditions for cell differentiation were 37° C., 5% CO2, and 4 days. Through this process, the 1464R cell line was differentiated into neuronal cells (neurons). Further, the 1464R cell line partly differentiated into glial cells. In the following description, the differentiated 1464R cell line is also collectively referred to as the “differentiated cell line.”
Using a 96-well plate treated with poly-L-lysine, cells were seeded at a concentration of 8×10^4 cells/well, cultured and differentiated under the conditions of (1) in Example 1.
Then, cell morphology in each group was observed using a fluorescence microscope.
Cell nuclei were fluorescently stained using Hoechst 33342 using a conventional method.

[4] = Group 3 (TDP43 + EA) vs Group 2 (Eda)
[5] = Group 4 (TDP43 + EA + Eda) vs Group 1 (control)
[6] = Group 4 (TDP43 + EA + Eda) vs Group 2 (Eda)
[7] = Group 4 (TDP43 + EA + Eda) vs Group 3 (TDP43 + EA)
[8] = Group 4 (TDP43+EA+Eda 50 μmol/L) vs Group 3 (TDP43+EA), RNA expression
[9] = in the presence of edaravone, TDP-43 mutant protein present

CC1=NN(c2ccccc2)C(=O)C1 [edaravone, 5-methyl-2-phenyl-2,4-dihydro-3H-pyrazol-3-one]
number of downregulated genes (DEGs) [1, 4]: 478
number of upregulated genes (DEGs) [1, 4]: 876
number of downregulated genes (DEGs) [1, 5]: 1,095
number of upregulated genes (DEGs) [1, 5]: 1,654
number of downregulated genes (DEGs) [1, 6]: 1,130
number of upregulated genes (DEGs) [1, 6]: 1,661
number of downregulated genes (DEGs) [1, 7]: 260
number of upregulated genes (DEGs) [1, 7]: 169
gene expression profile (principal component analysis of RNA-seq data) ([1]; Group 4 (TDP43 + EA + Eda) vs Group 3 (TDP43 + EA), FIG. 6): distinctly different gene expression profiles
Group 4 to Group 3 log2 ratio: Acsl6 (acyl-CoA synthetase long-chain family member 6) [1, 8]: −1.582
Group 4 to Group 3 log2 ratio: Cebpb (CCAAT/enhancer binding protein beta) [1, 8]: 1.661
Group 4 to Group 3 log2 ratio: Glrx (glutaredoxin) [1, 8]: −1.262
Group 4 to Group 3 log2 ratio: Ho-1 (hemeoxygenase 1) [1, 8]: 1.755
Group 4 to Group 3 log2 ratio: HspaS (heat shock protein family A (Hsp70) member 8) [1, 8]: 1.151
Group 4 to Group 3 log2 ratio: Hsph1 (heat shock protein family H (Hsp110) member 1) [1, 8]: 1.027
Group 4 to Group 3 log2 ratio: Mt1 (metallothionein 1) [1, 8]: −1.392
Group 4 to Group 3 log2 ratio: Nefl (neurofilament light) [1, 8]: −1.778
Group 4 to Group 3 log2 ratio: Nfe2l2 (nuclear factor, erythroid 2-like 2) [1, 8]: 0.923
Group 4 to Group 3 log2 ratio: Nup43 (nucleoporin 43) [1, 8]: −0.888
Group 4 to Group 3 log2 ratio: Pik3cb [1, 8]: 1.157
Group 4 to Group 3 log2 ratio: Plcg2 (phospholipase C, gamma 2) [1, 8]: 0.881
Group 4 to Group 3 log2 ratio: Plpp3 (phospholipid phosphatase 3) [1, 8]: 1.307
Group 4 to Group 3 log2 ratio: Ptgds (prostaglandin D2 synthase) [1, 8]: 0.954
Group 4 to Group 3 log2 ratio: Sqstm1 (sequestosome 1) [1, 8]: 1.225
Group 4 to Group 3 log2 ratio: Txndc2 (thioredoxin domain containing 2) [1, 8]: 1.153
log 2 ratio Group 4/Group 3: Alpl (ALPL) ([1]; Group 4 (TDP43+EA+Eda 50 μmol/L) vs Group 3 (TDP43+EA), RNA expression, DESeq2): −1.098
expression level of a gene product of ALPL [1, 9]: decreases
expression level of a gene product of ASF1B [1, 9]: decreases
expression level of a gene product of DCTD [1, 9]: decreases
expression level of a gene product of FAIM2 [1, 9]: increases
expression level of a gene product of FCSK [1, 9]: decreases
expression level of a gene product of HAUS4 [1, 9]: decreases
expression level of a gene product of ITGB4 [1, 9]: decreases
expression level of a gene product of KAZALD1 [1, 9]: decreases
expression level of a gene product of MAST1 [1, 9]: decreases
expression level of a gene product of MT2A [1, 9]: decreases
expression level of a gene product of NTM [1, 9]: decreases
expression level of a gene product of PTTG1 [1, 9]: decreases
expression level of a gene product of SBK1 [1, 9]: decreases
expression level of a gene product of SCN2A [1, 9]: decreases
expression level of a gene product of UBE2L6 [1, 9]: decreases
number of viable cells (absorbance at 450 nm) [2]: higher number of viable cells
neuron-specific protrusion shape observed by the localization of tubulin βIII [3]: sufficiently maintained
